{
  "source": "patent US5155110A",
  "about": "“Fenamic acid hydroxamate derivatives having cyclooxygenase and 5-lipoxygenase inhibition” (Warner-Lambert Company, priority 1988, dated 1992)",
  "key": {"5-lipoxygenase": {"target": "T1, 5-lipoxygenase (Rattus norvegicus, UniProt P12527)", "T1 construct": "host or cells: RBL-1 (rat basophilic leukemia)", "T1 sequence (P12527 1-673)": "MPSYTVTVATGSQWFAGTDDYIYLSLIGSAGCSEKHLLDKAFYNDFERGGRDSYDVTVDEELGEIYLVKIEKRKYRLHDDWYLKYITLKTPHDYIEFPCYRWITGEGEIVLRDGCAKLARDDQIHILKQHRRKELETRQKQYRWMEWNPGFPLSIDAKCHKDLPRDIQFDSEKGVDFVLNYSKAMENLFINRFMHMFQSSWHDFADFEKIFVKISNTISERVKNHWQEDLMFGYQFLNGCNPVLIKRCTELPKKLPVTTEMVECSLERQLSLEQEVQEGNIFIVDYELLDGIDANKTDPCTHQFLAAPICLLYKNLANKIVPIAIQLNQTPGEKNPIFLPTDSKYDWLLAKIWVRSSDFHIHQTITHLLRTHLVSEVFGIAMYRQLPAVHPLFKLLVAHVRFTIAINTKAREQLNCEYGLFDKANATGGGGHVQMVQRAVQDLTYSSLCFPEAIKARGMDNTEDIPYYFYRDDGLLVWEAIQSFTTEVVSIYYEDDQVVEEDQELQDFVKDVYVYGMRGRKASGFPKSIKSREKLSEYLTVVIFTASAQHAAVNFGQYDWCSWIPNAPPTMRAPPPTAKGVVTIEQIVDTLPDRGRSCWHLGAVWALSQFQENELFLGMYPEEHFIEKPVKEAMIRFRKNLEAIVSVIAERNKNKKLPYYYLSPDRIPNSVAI", "assay": "ARBL whole cell 5-lipoxygenase assay (LTB4 formation in RBL-1 cells)", "format": "cell-based", "conditions": "RBL-1 whole cells; for IC50: A23187 5 μM, read-out: ARBL IC50 for LTB4 inhibition", "protocol": "(§1) ARBL/ARBC Whole Cell 5-Lipoxygenase and Cyclooxygenase Assays\n(§2) The rat basophilic leukemia cell line (RBL-1) was obtained from the American Type Culture Collection (Rockville, Md.).\n(§3) Radioimmuno assay (RIA) kits of LTB4 and PGF2.sbsb.α were obtained from Amersham (Arlington Heiqhts, Ill.) and Seragen (Boston, Mass.) respectively.\n(§4) All tissue culture media were obtained from GIBCO (Grand Island, N.Y.).\n(§5) RBL-1 cells are grown in suspension culture in Eagle's minimum essential medium supplemented with 12% fetal bovine serum at 37° C. in an incubator supplied with air-5% carbon dioxide. Cells are harvested by centrifugation. They are washed with cold phosphate buffered saline pH 7.4 (PBS; NaCl, […]; Na2 HPO4, 1.15 g; KH2 PO4, 0.2 g; and KCl, 0.2 g/l). Cells are finally suspended in PBS containing 1.0 mM calcium at a density of 2×10^6 cells/ml. Cells are incubated with and without test agent (in DMSO) (1% DMSO is without effect on arachidonic acid metabolism) for ten minutes at room temperature. Calcium ionophore A23187 (5 μM) is added and cells are incubated for seven minutes at 37° C. The reaction is stopped by chilling the tubes on ice for ten minutes. Cells are separated by centrifugation and the supernatant is stored at -20°. Aliquots (100 μl) are analyzed for LTB4 and PGF2.sbsb.α using radioimmuno assay kits as provided by the supplier."}, "cyclooxygenase": {"target": "T2, cyclooxygenase (Rattus norvegicus, UniProt Q63921)", "T2 construct": "host or cells: RBL-1 (rat basophilic leukemia)", "T2 sequence (Q63921 27-602)": "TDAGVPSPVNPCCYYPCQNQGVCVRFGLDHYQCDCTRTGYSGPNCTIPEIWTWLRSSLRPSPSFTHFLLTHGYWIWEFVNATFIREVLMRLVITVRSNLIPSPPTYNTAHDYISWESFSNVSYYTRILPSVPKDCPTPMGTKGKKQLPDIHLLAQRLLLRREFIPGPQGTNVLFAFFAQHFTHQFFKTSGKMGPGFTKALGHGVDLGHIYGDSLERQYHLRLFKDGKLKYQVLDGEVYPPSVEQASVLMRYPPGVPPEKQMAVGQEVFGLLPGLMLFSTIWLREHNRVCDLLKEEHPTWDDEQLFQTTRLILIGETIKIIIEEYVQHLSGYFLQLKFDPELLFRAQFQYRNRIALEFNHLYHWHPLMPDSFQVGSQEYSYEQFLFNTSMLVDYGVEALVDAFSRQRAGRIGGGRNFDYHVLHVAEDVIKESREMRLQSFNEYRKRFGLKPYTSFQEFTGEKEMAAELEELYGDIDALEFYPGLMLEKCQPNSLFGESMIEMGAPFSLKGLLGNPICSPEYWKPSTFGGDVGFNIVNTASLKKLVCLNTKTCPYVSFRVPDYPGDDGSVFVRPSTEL", "assay": "ARBC whole cell cyclooxygenase assay (PGF2α formation in RBL-1 cells)", "format": "cell-based", "conditions": "RBL-1 whole cells; for IC50: A23187 5 μM, read-out: ARBC IC50 for PGF2α inhibition", "protocol": "as §1, §2, §3, §4\nas §5, with “Cells are finally suspended in PBS containing 1.0 mM calcium at a density of 2×10^6 cells/ml. Cells are incubated with and without test agent (in DMSO) (1% DMSO is without effect on arachidonic acid metabolism) for ten minutes at room temperature.” left out"}, "gastric ulcers in rats": {"test_system": "gastric ulcers in rats", "assay": "Gastric Ulcerogenicity (UD)", "format": "in vivo, rat", "conditions": "@ 200 mg/kg PO, fasted male Wistar rats, six hours", "protocol": "(§6) Gastric Ulcerogenicity (UD)\n(§7) Male outbred Wistar rats (100-250 gms) were fasted for 24 hours. After fasting, test compounds were administered orally (in 2 ml/kg of 0.5% hydroxypropyl methylcellulose) and the rats were denied access to food and water for six more hours. The rats were then sacrificed with CO2 so that the stomachs could be removed, opened along the greater curvature, and evaluated for the presence of gastric ulcers. Results are expressed as the percent of rats with gastric ulcers at a given dose."}, "[1]": {"test_system": "carrageenan-induced rat foot paw edema", "assay": "Carrageenan-Induced Rat Foot Paw Edema (CFE-2)", "format": "in vivo", "conditions": "5 h, read-out: CFE-2 ID25", "protocol": "Carrageenan-Induced Rat Foot Paw Edema2 (CFE2)\nCarrageenan solution (1% w/v) is prepared by dissolving 100 mg carrageenan (Marine Colloidal Div., Springfield, N.J.) in 10 ml of sterile saline (0.9%) solution (Travenol). The solution is vortexed for 30 to 45 minutes. Animals are dosed with compound one hour before carrageenan challenge. Foot paw edema is induced by injecting 0.05 ml of the 1% carrageenan subcutaneously into the plantar portion of the right hind paw of each rat under light anesthesia. Initial foot paw volume is measured immediately following carrageenan challenge using mercury plethysmography (Buxco Electronics). Edema is measured five hours after carrageenan. The difference between the five-hour and the initial paw volume is expressed as delta edema. The delta edema for each test group of animals is used to calculate the percent inhibition of edema achieved by the compound at the test dose compared with the vehicle control group. The ID25 (the dose at which swelling is inhibited by 25%) was calculated by probit analysis for the dose at which a result of 25 percent inhibition occurs."}, "[2]": {"test_system": "Mycobacterium-induced rat footpad edema", "assay": "Mycobacterium-Induced Rat Footpad Edema Assay (MFE)", "format": "in vivo", "conditions": "PO, one hour before Mycobacterium and Days 1 and 2, swelling at 72 hours, read-out: MFE ID40", "protocol": "Mycobacterium--Induced Rat Footpad Edema Assay (MFE): Protocol\nMyobacterium butyricum (5 mg/ml) is suspended in paraffin oil by sonication for ten minutes in an ice bath. Footpad edema is induced on Day 0 by injecting 0.1 ml of the Mycobacterium mixture into the left hindpaw of lightly anesthetized rats. Swelling in the injected hindpaw is determined by mercury plethysmography 72 hours after injection. Groups of rats are treated with test compounds (suspended in 0.5% hydroxypropyl methylcellulose with 0.2% Tween-80) or vehicle one hour before Myobacterium injection and on Days 1 and 2. Inhibition of swelling is determined by comparing the change in hindpaw volume in compound- and vehicle-treated rats. […] (the dose at which swelling is inhibited by 40%) was calculated by probit analysis."}, "[3]": {"assay": "Gastric Ulcerogenicity (UD)", "format": "in vivo, rat", "conditions": "rat, in vivo; fasted male Wistar rats, PO, six hours; read-out: UD50 (dose which produces a 50% occurrence of ulcers in rats)", "protocol": "as §6, §7"}, "[4]": {"conditions": "rat, PO, dosed one hour before carrageenan, edema at five hours"}},
  "note": "Like-named read-outs stand apart in the source and are kept apart here.",
  "data": [
    {"compound": "Cc1ccc(Cl)c(N2C(=O)C(=NO)c3ccccc32)c1Cl", "note": "[Example 49, 1-(2,6-Dichloro-3-methylphenyl)-lH-indole-2,3-dione-3-oxime]", "values": [
      {"measurement": "IC50", "setting": "5-lipoxygenase", "value": 6.5, "unit": "µM"},
      {"measurement": "IC50", "setting": "cyclooxygenase", "value": 28, "unit": "µM"}
    ]},
    {"compound": "Cc1ccc(Cl)c(Nc2ccccc2C(=O)NO)c1Cl", "note": "[Example 2, 2-[(2,6-dichloro-3-methylphenyl)amino]-N-hydroxybenzamide]", "values": [
      {"measurement": "IC50", "setting": "5-lipoxygenase", "value": 3.9, "unit": "µM"},
      {"measurement": "UD: percent of rats with gastric ulcers", "setting": "gastric ulcers in rats", "value": "N (N is 0% of rats have ulcers occurring at 200 mg.)"},
      {"measurement": "ED25", "setting": "[1]; [4]", "value": 0.2, "unit": "mg/kg"},
      {"measurement": "ED40", "setting": "[2]", "value": 2.5, "unit": "mg/kg"}
    ]},
    {"compound": "Cc1ccc(Cl)c(Nc2ccccc2C(=O)N(C)O)c1Cl", "note": "[Example 3, 2-[(2,6-dichloro-3-methylphenyl)amino]-N-hydroxy-N-methylbenzamide]", "values": [
      {"measurement": "IC50", "setting": "5-lipoxygenase", "value": 1.5, "unit": "µM"},
      {"measurement": "UD: percent of rats with gastric ulcers", "setting": "gastric ulcers in rats", "value": "N (N is 0% of rats have ulcers occurring at 200 mg.)"},
      {"measurement": "ED25", "setting": "[1]; [4]", "value": 1.3, "unit": "mg/kg"},
      {"measurement": "ED40", "setting": "[2]", "value": 24, "unit": "mg/kg"}
    ]},
    {"compound": "Cc1ccc(Cl)c(N2CN(O)C(=O)c3ccccc32)c1Cl", "note": "[Example 35, 1-(2,6-dichloro-3-methylphenyl)-2,3-dihydro-3-hydroxy-4(1H)-quinazolinone]", "values": [
      {"measurement": "IC50", "setting": "5-lipoxygenase", "value": 3.2, "unit": "µM"},
      {"measurement": "IC50", "setting": "cyclooxygenase", "value": 2.2, "unit": "µM"}
    ]},
    {"compound": "Cc1ccc(Cl)c(Nc2ccccc2C(=O)N(O)Cc2ccccc2)c1Cl", "note": "[Example 1, 2-[(2,6-Dichloro-3-methylphenyl)amino]-N-hydroxy-N-phenylmethylbenzamide]", "values": [
      {"measurement": "UD: percent of rats with gastric ulcers", "setting": "gastric ulcers in rats", "value": "N (N is 0% of rats have ulcers occurring at 200 mg.)"},
      {"measurement": "ED40", "setting": "[2]", "value": 27, "unit": "mg/kg"}
    ]},
    {"compound": "Cc1cccc(Nc2ccccc2C(=O)NO)c1C", "note": "[Example 9, 2-[(2,3-dimethylphenyl)amino]-N-hydroxybenzamide]", "values": [
      {"measurement": "IC50", "setting": "5-lipoxygenase", "value": 1.8, "unit": "µM"},
      {"measurement": "inhibition at 0.5 µM", "setting": "cyclooxygenase; @ 0.5 μM", "value": 60, "unit": "%"}
    ]},
    {"compound": "O=C(NO)c1ccccc1Nc1c(Cl)cccc1Cl", "note": "[Example 10, 2-[(2,6-dichlorophenyl)amino]-N-hydroxybenzamide]", "values": [
      {"measurement": "inhibition at 16 µM", "setting": "5-lipoxygenase; @ 16 μM", "value": 88, "unit": "%"},
      {"measurement": "inhibition at 16 µM", "setting": "cyclooxygenase; @ 16 μM", "value": 80, "unit": "%"}
    ]},
    {"compound": "CONC(=O)c1ccccc1Nc1c(Cl)ccc(C)c1Cl", "note": "[Example 4, Ortho-2,6-dichloro-3-methylanilinobenzhydroxamic acid O-methyl ether]", "values": [
      {"measurement": "IC50", "setting": "5-lipoxygenase", "value": 16, "unit": "µM"}
    ]},
    {"compound": "Cc1ccc(Cl)c(Nc2ccccc2C(=O)O)c1Cl", "note": "[Meclomen, reference compound]", "values": [
      {"measurement": "IC50", "setting": "5-lipoxygenase", "value": 24, "unit": "µM"},
      {"measurement": "TD50 at 6 h", "setting": "[3]", "value": 36, "unit": "mg/kg"},
      {"measurement": "ED25", "setting": "[1]; Rattus norvegicus, po", "value": 8.2, "unit": "mg/kg"},
      {"measurement": "ED40", "setting": "[2]", "value": 0.39, "unit": "mg/kg"}
    ]}
  ]
}
